Results published in US20240408086A1, “USE OF LUVADAXISTAT FOR THE TREATMENT OF COGNITIVE IMPAIRMENT” (TAKEDA PHARMACEUTICAL COMPANY LIMITED, priority 2021, published 2024).
Read-outs that look alike come from different tables or passages of the source.

What was measured:
Mouse = assay: Novel object recognition (cognition); assay type: in vivo; set-up: key: a + sign means efficacious; a − sign means not efficacious
Description: In Table 1, a + sign means efficacious, a − sign means not efficacious, and an empty cell indicates a dose was not tested.

D-serine in cerebellum = assay: D-serine increase in cerebellum (6 hours); assay type: in vivo; set-up: key: a + sign means efficacious; a − sign means not efficacious; details: Mouse
Description: DAAO inhibition increases levels of D-serine, a co-agonist of the N-methyl-d-aspartate (NMDA) receptor. […] Increases in cerebellum D-serine levels may also influence distal regions of the brain (such as the hippocampus) or cortical regions, through a mechanism that remains to be elucidated. […] In Table 1, a + sign means efficacious, a − sign means not efficacious, and an empty cell indicates a dose was not tested.

[1] = system: adult patients with persistent negative symptoms of schizophrenia; assay type: in vivo, human; details: for SCoRS Interviewer Total Score, Difference from Placebo for Week 12, LS Mean (SE) / SCoRS Interviewer Total Score, Adjusted Change from Baseline to Week 12, LS Mean (SE): MMRM; for SCoRS Interviewer Total Score, Difference from Placebo for Week 12, LS Mean (SE) / SCoRS Interviewer Total Score, Adjusted Change from Baseline to Week 12, LS Mean (SE) / SCoRS Interviewer Total Score, Change from Baseline to Week 12, Mean (SD) / SCoRS Interviewer Total Score, Change from Baseline to Week 12, Median / SCoRS Interviewer Total Score, Week 12, Mean (SD) / SCoRS Interviewer Total Score, Week 12, Median: preliminary analysis
Description: To assess changes in cognitive impairment associated with schizophrenia (CIAS), secondary endpoints included the 12-week change from baseline in the Brief Assessment of Cognition in Schizophrenia (BACS) composite score, a measure of cognition across multiple domains, and the Schizophrenia Cognition Rating Scale (SCORS) score, a measure of day-to-day cognitive functioning requiring input from an adult informant. Secondary endpoints were not corrected for multiplicity.
The SCORS is an interview-based measure of cognitive functioning that was developed to specifically assess aspects of cognitive functioning in participants with schizophrenia. The items assess the 7 cognitive domains of attention, memory, reasoning and problem solving, working memory, processing speed, language functions, and social cognition. The SCORS global total scores is the sum of the 20 items, and it varies from 20 to 80 with 20 being the best outcome and 80 being the worst.

[2] = 14-Day Once Daily (QD), 0.03 mg/kg
[3] = 14-Day Once Daily (QD), 0.1 mg/kg
[4] = 14-Day Once Daily (QD), 0.3 mg/kg
[5] = 14-Day Once Daily (QD), 1 mg/kg
[6] = 14-Day Once Daily (QD), 3 mg/kg

O=c1[nH]nc(CCc2ccc(C(F)(F)F)cc2)cc1O [Compound (I), luvadaxistat]
Novel object recognition (cognition) (Mouse; 14-Day Once Daily (QD), 0.001 mg/kg): − | Novel object recognition (cognition) (Mouse; 14-Day Once Daily (QD), 0.003 mg/kg): + | Novel object recognition (cognition) (Mouse; 14-Day Once Daily (QD), 0.01 mg/kg): + | Novel object recognition (cognition) (Mouse; [2]): + | Novel object recognition (cognition) (Mouse; [3]): + | Novel object recognition (cognition) (Mouse; [4]): − | Novel object recognition (cognition) (Mouse; [5]): − | Novel object recognition (cognition) (Mouse; [6]): − | Novel object recognition (cognition) (Mouse; Single Dose, 0.1 mg/kg): − | Novel object recognition (cognition) (Mouse; Single Dose, 0.3 mg/kg): + | Novel object recognition (cognition) (Mouse; Single Dose, 1 mg/kg): + | Novel object recognition (cognition) (Mouse; Single Dose, 3 mg/kg): + | Novel object recognition (cognition) (Mouse; Single Dose, 10 mg/kg): + | D-serine increase in cerebellum (6 hours) (D-serine in cerebellum; [2]): − | D-serine increase in cerebellum (6 hours) (D-serine in cerebellum; [3]): − | D-serine increase in cerebellum (6 hours) (D-serine in cerebellum; [4]): + | D-serine increase in cerebellum (6 hours) (D-serine in cerebellum; [5]): + | D-serine increase in cerebellum (6 hours) (D-serine in cerebellum; [6]): + | D-serine increase in cerebellum (6 hours) (D-serine in cerebellum; Single Dose, 0.3 mg/kg): + | D-serine increase in cerebellum (6 hours) (D-serine in cerebellum; Single Dose, 1 mg/kg): + | D-serine increase in cerebellum (6 hours) (D-serine in cerebellum; Single Dose, 3 mg/kg): + | D-serine increase in cerebellum (6 hours) (D-serine in cerebellum; Single Dose, 10 mg/kg): + | SCoRS interviewer total score, effect size versus placebo ([1]; 50 mg once daily, 12 weeks, p=0.011, not corrected for multiplicity): 0.4 | SCoRS Interviewer Total Score, Difference from Placebo for Week 12, LS Mean (SE) ([1]; 50 mg once daily, one-sided unadjusted p 0.007*): −2.4 (0.94) | SCoRS Interviewer Total Score, Adjusted Change from Baseline to Week 12, LS Mean (SE) ([1]; 50 mg once daily): −3.7 (0.77) | SCoRS interviewer total score, 12-week LS mean change from baseline ([1]; 50 mg once daily, placebo −1.6): −3.8 | SCoRS Interviewer Total Score, Change from Baseline to Week 12, Mean (SD) ([1]; 50 mg once daily): −4.0 (5.93) | SCoRS Interviewer Total Score, Change from Baseline to Week 12, Median ([1]; 50 mg once daily): −3.0 | SCoRS Interviewer Total Score, Week 12, Mean (SD) ([1]; 50 mg once daily): 35.5 (10.91) | SCoRS Interviewer Total Score, Week 12, Median ([1]; 50 mg once daily): 32.0 | SCoRS Interviewer Total Score, Difference from Placebo for Week 12, LS Mean (SE) ([1]; 125 mg once daily, one-sided unadjusted p 0.236): −0.7 (0.96) | SCoRS Interviewer Total Score, Adjusted Change from Baseline to Week 12, LS Mean (SE) ([1]; 125 mg once daily): −2.1 (0.77) | SCoRS Interviewer Total Score, Change from Baseline to Week 12, Mean (SD) ([1]; 125 mg once daily): −2.1 (5.89) | SCoRS Interviewer Total Score, Change from Baseline to Week 12, Median ([1]; 125 mg once daily): −2.0 | SCoRS Interviewer Total Score, Week 12, Mean (SD) ([1]; 125 mg once daily): 36.1 (9.69) | SCoRS Interviewer Total Score, Week 12, Median ([1]; 125 mg once daily): 36.5 | SCoRS Interviewer Total Score, Difference from Placebo for Week 12, LS Mean (SE) ([1]; 500 mg once daily, one-sided unadjusted p 0.449): −0.1 (0.98) | SCoRS Interviewer Total Score, Adjusted Change from Baseline to Week 12, LS Mean (SE) ([1]; 500 mg once daily): −1.5 (0.84) | SCoRS Interviewer Total Score, Change from Baseline to Week 12, Mean (SD) ([1]; 500 mg once daily): −2.4 (5.34) | SCoRS Interviewer Total Score, Change from Baseline to Week 12, Median ([1]; 500 mg once daily): −2.0 | SCoRS Interviewer Total Score, Week 12, Mean (SD) ([1]; 500 mg once daily): 39.4 (9.60) | SCoRS Interviewer Total Score, Week 12, Median ([1]; 500 mg once daily): 39.0
